What is called IC50 is the concentration that inhibits the measured activity by half. A high value points to lower potency.

The test system of one assay is Aβtotal. In words: Screening for γ-secretase-modulating activity, Method 1: Aβtotal sandwich ELISA on SKNBE2 cell media. In kind it is cell-based. To be noted: SKNBE2 cells carrying APP 695 wild type. As to the method: (§1) Screening was carried out using SKNBE2 cells carrying the APP 695—wild type, grown in Dulbecco's Modified Eagle's Medium/Nutrient mixture F-12 (DMEM/NUT-mix F-12) (HAM) provided by Gibco (cat no. 31330-38) containing 5% Serum/Fe supplemented with 1% non-essential amino acids. Cells were grown to near confluency.
(§2) The screening was performed using the assay as described in Citron et al (1997) Nature Medicine 3: 67. Briefly, cells were plated in a 96-well plate at about 10^5 cells/ml one day prior to addition of compounds. Compounds were added to the cells in Ultraculture (Lonza, BE12-725F) supplemented with 1% glutamine (Invitrogen, 25030-024) for 18 hours. The media were assayed by two sandwich ELISAs, for Aβ42 and Aβtotal. Toxicity of the compounds was assayed by WST-1 cell proliferation reagent (Roche, 1 644 807) according to the manufacturer's protocol.
To quantify the amount of Aβtotal in the cell supernatant, samples and standards were added to a 6E10-coated plate. The plate was allowed to incubate overnight at 4° C. in order to allow formation of the antibody-amyloid complex. Following this incubation and subsequent wash steps a selective anti-Aβ-antibody conjugate (biotinylated 4G8) was added and incubated for a minimum of 1 hour in order to allow formation of the antibody-Amyloid-antibody-complex. After incubation and appropriate wash steps, a Streptavidine-Peroxidase-Conjugate was added, followed 30 minutes later by an addition of Quanta Blu fluorogenic peroxidase substrate according to the manufacturer's instructions (Pierce Corp., Rockford, Ill.).
(§3) To obtain the values reported in Table 3a, the sigmoidal dose response curves were analysed by computerised curve-fitting, with percent of inhibition plotted against compound concentration. A 4-parameter equation (model 205) in XLfit was used to determine the IC50. The top and the bottom of the curve were fixed to 100 and 0, respectively, and the hill slope was fixed to 1. The IC50 represents the concentration of a compound that is required for inhibiting a biological effect by 50% (Here, it is the concentration where Aβ peptide level is reduced by 50%).
(§4) To obtain the values reported in Table 3b, the data were calculated as percentage of the maximum amount of amyloid Beta 42 measured in the absence of the test compound. The sigmoidal dose response curves were analyzed using non-linear regression analysis with percentage of the control plotted against the log concentration of the compound. A 4-parameter equation was used to determine the IC50. The values reported in Table 3b are averaged IC50 values.
Background: ELISA stands for enzyme-linked immunosorbent assay.

Another assay deals with Aβ42. In words: Screening for γ-secretase-modulating activity, Method 1: Aβ42 sandwich ELISA on SKNBE2 cell media. In kind it is cell-based. To be noted: SKNBE2 cells carrying APP 695 wild type. As for the experimental part: as §1, §2
To quantify the amount of Aβ42 in the cell supernatant, commercially available Enzyme-Linked-Immunosorbent-Assay (ELISA) kits were used (Innotest® β-Amyloid(1-42), Innogenetics N.V., Ghent, Belgium). The Aβ42 ELISA was performed essentially according to the manufacturer's protocol. Briefly, the standards (dilutions of synthetic Aβ1-42) were prepared in polypropylene Eppendorf with final concentrations of 8000 down to 3.9 pg/ml (1/2 dilution step). Samples, standards and blanks (100 μl) were added to the anti-Aβ42-coated plate supplied with the kit (the capture antibody selectively recognizes the C-terminal end of the antigen). The plate was allowed to incubate 3 h at 25° C. in order to allow formation of the antibody-amyloid complex. Following this incubation and subsequent wash steps a selective anti-Aβ-antibody conjugate (biotinylated 3D6) was added and incubated for a minimum of 1 hour in order to allow formation of the antibody-Amyloid-antibody-complex. After incubation and appropriate wash steps, a Streptavidine-Peroxidase-Conjugate was added, followed 30 minutes later by an addition of 3,3′,5,5′-tetramethylbenzidine (TMB)/peroxide mixture, resulting in the conversion of the substrate into a coloured product. This reaction was stopped by the addition of sulfuric acid (0.9 N) and the colour intensity was measured by means of photometry with an ELISA-reader with a 450 nm filter.
as §3, §4

[1] abbreviates: Homo sapiens, Table 3a, 18 hours, XLfit, top/bottom fixed to 100 and 0, hill slope 1.
Where [2] appears, read: Homo sapiens, Table 3b, non-linear regression of % of control, averaged IC50 values.
Setting [3] is: Table 3a, 18 hours, XLfit, top/bottom fixed to 100 and 0, hill slope 1.
Setting [4] is: Table 3b, non-linear regression of % of control, averaged IC50 values.

Consider `COc1cc(Nc2cccc3c2nc(CC2CCN(C(C)=O)CC2)n3C)ccc1-n1cnc(C)c1` [Compound 10], for which the half-maximal inhibitory concentration (IC50) was more than 30000 nM in the assay on Aβtotal (setting [1]), 29500 nM in the assay with Aβtotal (setting [2]), 751 nM in the assay with Aβ42 (setting [1]) and 575 nM with Aβ42 (setting [2]).
On the same counts, the results for `COc1cc(Nc2cccc3c2nc(CC2CCN(C)CC2)n3C)ccc1-n1cnc(C)c1` [Compound 11] are 12000 nM, 16600 nM, 1590 nM and 1260 nM.
The corresponding values for `Cc1ncnn1-c1ccc(Nc2nccc3c2nc(-c2ccc(F)cc2)n3C(C)C)cc1F` [Compound 13] are more than 10000 nM, more than 10000 nM, 603 nM and 603 nM.
The corresponding values for `Cc1ncn(-c2ccc(Nc3cc(C(F)(F)F)cc4c3nc(-c3ccc(F)cc3)n4C)cn2)n1` [Compound 14] are more than 10000 nM, more than 10000 nM, 132 nM and 132 nM.
For `COc1cc(Nc2cccc3oc(-c4ccccc4Cl)nc23)ccc1-n1cnc(C)c1` [Compound 16], the concentration for half-maximal inhibition (IC50) was more than 10000 nM in the assay on Aβtotal (setting [1]), more than 10000 nM in the assay with Aβtotal (setting [2]), 267 nM in the assay on Aβ42 (setting [1]) and 257 nM with Aβ42 (setting [2]).
On to `COc1cc(Nc2cccc3oc(C4CCCCC4)nc23)ccc1-n1cnc(C)c1` [Compound 17], for which the IC50 with Aβtotal (setting [1]) was more than 3000 nM; in the assay with Aβtotal (setting [2]), more than 3000 nM; in the assay with Aβ42 (setting [1]) it was 178 nM; in the assay on Aβ42 (setting [2]), 174 nM.
On to `COc1cc(Nc2cccc3c2nc(C)n3C)ccc1-n1cnc(C)c1` [Compound 19], for which the half-inhibitory concentration (IC50) is more than 10000 nM in the assay with Aβtotal (setting [3]), more than 10000 nM in the assay on Aβtotal (setting [4]), 1660 nM with Aβ42 (setting [3]) and 1660 nM with Aβ42 (setting [4]).
Consider `COc1cc(Nc2cccc3c2nc(C)n3C(C)C)ccc1-n1cnc(C)n1` [Compound 21], for which the IC50 was more than 33000 nM with Aβtotal (setting [3]), 45700 nM in the assay with Aβtotal (setting [4]), 905 nM in the assay with Aβ42 (setting [3]) and 891 nM in the assay on Aβ42 (setting [4]).
Regarding `CCCCc1nc2c(Nc3ccc(-n4cnc(C)n4)c(F)c3)cccc2n1C` [Compound 24], the IC50 with Aβtotal (setting [3]) came out at 18000 nM; in the assay on Aβtotal (setting [4]), 17800 nM; in the assay on Aβ42 (setting [3]), 505 nM; in the assay on Aβ42 (setting [4]) it was 380 nM.
For `COc1cc(Nc2cccc3c2nc(CC(C)C)n3C)ccc1-n1cnc(C)c1` [Compound 25], the concentration for half-maximal inhibition (IC50) is more than 3000 nM in the assay on Aβtotal (setting [3]), more than 3000 nM in the assay on Aβtotal (setting [4]), 19 nM in the assay on Aβ42 (setting [3]) and 19 nM in the assay on Aβ42 (setting [4]).
`Cc1ncn(-c2ccc(Nc3cccc4c3nc(CC(C)C)n4CC(C)C)cc2)n1` [Compound 26]: the IC50 in the assay on Aβtotal (setting [3]) was more than 10000 nM; in the assay with Aβtotal (setting [4]), more than 10000 nM; with Aβ42 (setting [3]), 517 nM; in the assay on Aβ42 (setting [4]), 708 nM.
Turning to `COCCn1c(CC(C)C)nc2c(Nc3ccc(-n4cnc(C)n4)cc3)cccc21` [Compound 27], the half-inhibitory concentration (IC50) is more than 10000 nM in the assay on Aβtotal (setting [3]), 17400 nM in the assay with Aβtotal (setting [4]), 1250 nM in the assay on Aβ42 (setting [3]) and 1120 nM in the assay with Aβ42 (setting [4]).
On the same counts, the results for `COc1cc(Nc2cccc3oc(CC(C)C)nc23)ccc1-n1cnc(C)n1` [Compound 28] are more than 3000 nM, more than 3000 nM, 1350 nM and 1350 nM.
With `COc1cc(Nc2cccc3c2nc(C(C)(C)C)n3C)ccc1-n1cnc(C)c1` [Compound 29], the IC50 in the assay on Aβtotal (setting [3]) is more than 10000 nM; with Aβtotal (setting [4]) it was more than 10000 nM; in the assay on Aβ42 (setting [3]), 1090 nM; in the assay on Aβ42 (setting [4]) it was 437 nM.
With `COc1cc(Nc2cccc3oc(C(C)(C)C)nc23)ccc1-n1cnc(C)c1` [Compound 30], the half-maximal inhibitory concentration (IC50) is more than 3000 nM with Aβtotal (setting [3]), more than 3000 nM in the assay with Aβtotal (setting [4]), 790 nM in the assay with Aβ42 (setting [3]) and 794 nM in the assay on Aβ42 (setting [4]).
`COc1cc(Nc2cccc3c2nc(OC(C)C)n3C)ccc1-n1cnc(C)c1` [Compound 31]: the IC50 in the assay on Aβtotal (setting [3]) was 29700 nM; in the assay on Aβtotal (setting [4]), more than 30000 nM; in the assay with Aβ42 (setting [3]), 550 nM; with Aβ42 (setting [4]), 501 nM.
On the same counts, the results for `COCCCc1nc2c(Nc3ccc(-n4cnc(C)c4)c(OC)c3)cccc2n1C` [Compound 32] are more than 10000 nM, more than 10000 nM, 216 nM and 209 nM.
The corresponding values for `COc1cc(Nc2cccc3c2nc(CCC(F)(F)F)n3C)ccc1-n1cnc(C)c1` [Compound 34] are more than 1000 nM, more than 1000 nM, 51 nM and 43 nM.
As for `COc1cc(Nc2cccc3oc(C4CCCC4)nc23)ccc1-n1cnc(C)c1` [Compound 37], the IC50 with Aβtotal (setting [3]) was more than 10000 nM; in the assay on Aβtotal (setting [4]) it was more than 10000 nM; in the assay with Aβ42 (setting [3]), 266 nM; with Aβ42 (setting [4]), 275 nM.
Consider `COc1cc(Nc2cccc3c2nc(N2CCCCC2)n3C)ccc1-n1cnc(C)c1` [Compound 39], for which the IC50 in the assay with Aβtotal (setting [3]) is more than 3000 nM; with Aβtotal (setting [4]), more than 5000 nM; in the assay with Aβ42 (setting [3]), 69 nM; with Aβ42 (setting [4]) it was 87 nM.
In the case of `COc1cc(Nc2cccc3oc(C4CCN(C(=O)OC(C)(C)C)CC4)nc23)ccc1-n1cnc(C)c1` [Compound 42], the IC50 was more than 3000 nM in the assay with Aβtotal (setting [3]), more than 3000 nM in the assay on Aβtotal (setting [4]), 1100 nM in the assay on Aβ42 (setting [3]) and 1100 nM in the assay with Aβ42 (setting [4]).
With `COc1cc(Nc2cccc3c2nc(CC2CCOCC2)n3C)ccc1-n1cnc(C)c1` [Compound 43], the concentration for half-maximal inhibition (IC50) is more than 1000 nM with Aβtotal (setting [3]), more than 5000 nM in the assay with Aβtotal (setting [4]), 123 nM in the assay on Aβ42 (setting [3]) and 120 nM with Aβ42 (setting [4]).
In the case of `COc1cc(Nc2cccc3c2nc(-c2ccccc2C)n3Cc2ccccc2)ccc1-n1cnc(C)c1` [Compound 46], the IC50 in the assay on Aβtotal (setting [1]) was more than 1000 nM; in the assay with Aβtotal (setting [2]), more than 3000 nM; in the assay with Aβ42 (setting [1]), 10 nM; in the assay with Aβ42 (setting [2]), 10 nM.
In the case of `COc1ccc(-c2nc3c(Nc4ccc(-n5cnc(C)c5)c(OC)c4)cccc3n2C)cc1` [Compound 47], the IC50 in the assay with Aβtotal (setting [3]) is more than 1000 nM; in the assay on Aβtotal (setting [4]), more than 3000 nM; in the assay with Aβ42 (setting [3]), 16 nM; in the assay on Aβ42 (setting [4]) it was 13 nM.
`COc1ccccc1-c1nc2c(Nc3ccc(-n4cnc(C)c4)c(OC)c3)cccc2o1` [Compound 48]: the half-inhibitory concentration (IC50) with Aβtotal (setting [3]) is more than 10000 nM; with Aβtotal (setting [4]) it was more than 10000 nM; in the assay with Aβ42 (setting [3]), 427 nM; with Aβ42 (setting [4]), 398 nM.
Take `COc1cccc(-c2nc3c(Nc4ccc(-n5cnc(C)n5)cc4)cccc3n2C)c1` [Compound 50]: the half-maximal inhibitory concentration (IC50) is more than 10000 nM in the assay with Aβtotal (setting [3]), more than 10000 nM in the assay with Aβtotal (setting [4]), 101 nM in the assay on Aβ42 (setting [3]) and 81 nM in the assay with Aβ42 (setting [4]).
On to `COc1cccc(-c2nc3c(Nc4ccc(-n5cnc(C)n5)c(OC)c4)cccc3n2C)c1` [Compound 52], for which the IC50 in the assay with Aβtotal (setting [3]) is more than 3000 nM; with Aβtotal (setting [4]), more than 3000 nM; with Aβ42 (setting [3]) it was 20 nM; with Aβ42 (setting [4]), 19 nM.
Take `COc1cccc(-c2nc3c(Nc4ccc(-n5cnc(C)n5)c(OC)c4)cccc3n2C(C)C)c1` [Compound 53]: the IC50 was more than 1000 nM in the assay with Aβtotal (setting [3]), more than 3000 nM with Aβtotal (setting [4]), 22 nM with Aβ42 (setting [3]) and 19 nM in the assay with Aβ42 (setting [4]).
The corresponding values for `CCOc1cc(C)c(-c2nc3c(Nc4ccc(-n5cnc(C)n5)c(OC)c4)cccc3n2C)cc1C(C)C` [Compound 58] are more than 3000 nM, more than 3000 nM, 68 nM and 65 nM.

For the origin of these results see patent publication US8772504B2, “Substituted benzoxazole, benzimidazole, oxazolopyridine and imidazopyridine derivatives as gamma secretase modulators” (Janssen Pharmaceuticals, Inc., priority 2009, dated 2014).
